# Assay results reported in patent US20060079453A1, “Hla binding peptides and their uses” (priority 2002, published 2006).
# No end group written: not given here.
# Key:
# Assay in all cases: biochemical
# Assay type in all cases: binding
# HLA-A*0301 = HLA-A*0301 (Homo sapiens, UniProt P04439)
# HLA-A*1101 = HLA-A*1101 (Homo sapiens, UniProt P04439, A114D/D185E/E176A/F33Y/L180Q/S129P/T187R)
# HLA-A*3101 = HLA-A*3101 (Homo sapiens, UniProt P04439, A270S/D185E/E176V/E277Q/F33T/G231S/G80R/H175R/I121M/I218V/I322F/K168Q/L300P/L318F/M331R/P217A/Q94H/R138Q/T323A/T345S/T97I/V358M)
# HLA-A*3301 = HLA-A*3301 (Homo sapiens, UniProt P04439, A270S/D185E/E176V/E277Q/E87N/F33T/G231S/H175R/I121M/I218V/I322F/K168Q/K210R/L300P/L318F/M331R/P217A/Q86R/Q94H/R138Q/T323A/T345S/T97I/V358M/Y195H)
# HLA-A*6801 = HLA-A*6801 (Homo sapiens, UniProt P04439, A269V/D185E/E176V/E277Q/E87N/F33Y/G231S/I121M/I166T/I218V/L180W/L300P/L318F/N151K/P208A/P217A/Q86R/R169H/T345S)
Sequence,IC50 (HLA-A*0301) [nM],IC50 (HLA-A*1101) [nM],IC50 (HLA-A*3101) [nM],IC50 (HLA-A*3301) [nM],IC50 (HLA-A*6801) [nM]
GTRQARRNK,67,749,9710,46000,59700
GTRQARRNRK,100,634,3800,> 42300,7790
GTTLESITKK,622,108,85200,133000,10100
GVDGLIYSK,10100,47,> 17700,> 29700,5100
GVNHQHLPAK,42,11,3340,76200,9350
GVSGPGPGK,13,5.8,> 11200,> 112000,209
GVSHAQLPAK,42,12,36000,> 74900,20600
KFSEFRWYRY,4750,1590,34,856,12800
KFYSKISEYK,7.6,674,27,329,208
KISEYRHYNK,29,18,397,24800,15600
KISEYRHYNR,58,140,17,161,1580
KMFLQLAK,45,62,677,> 126000,8380
KQENWYSLKK,608,178,6330,> 136000,4790
KQLCDLLIK,226,65,340,46400,11900
KQRFHNIRGK,55,1950,573,35200,22900
KSMLKELIK,189,151,450,> 46500,> 37000
KTLGISYGR,53,9.8,21,502,36
KTLGISYGRK,36,79,841,42400,1630
KVGPGGYPRR,2270,487,250,7900,721
KVGPGGYPRRK,70,87,775,> 5060,921
KVGSLQYLK,482,70,2100,> 43700,4200
KVRFHNIRGR,39,8630,27,4500,3980
KVSEFRWYRR,266,16,2.8,159,30
LLFYSKVRKYR,28,94,7,11,15
LTFYSKVRK,3.8,8,87,3380,13
LTISYGRK,988,708,27100,38200,482
LTISYGRKK,584,69,13900,59700,63

Sequence,IC50 (HLA-A*0301) [nM],IC50 (HLA-A*1101) [nM],IC50 (HLA-A*3101) [nM],IC50 (HLA-A*3301) [nM],IC50 (HLA-A*6801) [nM]
LVFSNVLCFR,120,19,33,19,7.7
LVTDLRIVYR,3870,648,20,150,6.8
NIMGRWTGK,52,54,3270,86,173
NSVYGETLER,150,25,163,1330,18
NTLEQTVKR,20400,1150,2270,18,8.6
NVMGRWTGR,3880,794,40,18,20
PVLTSLFNK,1950,25,5110,18300,29900
PVRPQVPLR,> 10900,16100,332,3440,7010
QMAVGPGPGK,33,16,5960,86700,22
QMMNVNLQK,20,7,504,6650,243
QQNQESKIMK,3470,77,28100,> 17400,21300
RFHSIAGQYK,17,43,1.3,629,83
RFLSKISEYY,1700,25500,14,41100,4000
RLFEESLGIR,64,1100,297,788,409
RLLSKISEYR,5.2,662,7.7,108,21
RLYSKVSEFR,6.4,131,24,690,73
RVHFASPLH,12,60,572,> 123000,7620
RVHSIAGQYR,31,34,7.6,812,28
RVRRRRWRAR,2440,> 16800,265,3760,> 36900
SFYGKTLEER,642,205,17,66,42
SFYGTTLEK,34,15,517,3380,498
SLGPGPGTK,7.8,5.8,4390,152000,3520
SLYGKTLEEK,7.9,6.8,1040,6520,29
SSFDIKSEVK,1900,19,19800,70300,31
STGPGPGVVRR,18700,367,95,5980,5.8
STLGPGPGVRR,892,19,42,670,3.8
